Experimental data: patent US6913768B2, “Sustained release delivery of amphetamine salts” (Shire Laboratories, Inc., priority 2002, dated 2005)

Test: Single-dose mean plasma concentration profile of […] XR 20 mg (FIG. 1)
Type: in vivo
Conditions: human, oral, […] XR 20 mg single dose, mean over about 20 patients
Protocol: See, e.g., Fundamentals of Clinical Pharmacokinetics. J. G. Wagner, Drug Intelligence Publications, Inc., Hamilton, Ill., 1975; Guidance for Industry, Bioavailability and Bioequivalence Studies for Orally Administered Drug Products-General Considerations, FDA, CDER. October 2000.
Individual patients were treated with […] XR®, 20 mg. Subjects received either one single dose administered with food or one single dose administered following a 10-hour overnight fast through continued fast 3.5 hours post dosing. The mean plasma concentration profile of FIG. 1 was obtained from averaging such individuals' curves.

C[C@H](N)Cc1ccccc1 [d-amphetamine]
Cmax: 28 ng/mL | Tmax: 7.1 h | AUC (read-out: AUC (time zero to infinity)): 557 ng·h/mL
